# Measured values as given in patent US10016356B2, “Sebum secretion inhibitory agent” (BASF Beauty Care Solutions France S.A.S., priority 2008, dated 2018).
# How the values were obtained:
# [1] = test system: squalene synthesis on explants of normal human skin; assay: Biosynthesis of squalene from 4-14C mevalonate on explants of normal human skin (in vitro); format: cell-based; conditions: percentage relative to untreated negative control; extracts of culture media; 24 h; n=3 biopsies; extract at 2%, zinc gluconate at 1%
# Method: The principle of this evaluation is based on the measurement of the biosynthesis of squalene, a specific tracer of the production of human sebum by the sebocytes, from radiolabelled mevalonic acid.
# 1) Freshly taken biopsies of human skin (n=3) are incubated in 5 ml of culture medium in the presence or absence of the test products for 24 h.
# 2) An amount of radioactive products of 2 μCi of mevalonate 4-^14C is then added to the biopsies and the whole is incubated again for 24 h.
# 3) Extraction of the culture media and of the surface of the skin is carried out with isopropyl ether, then the skin samples are dried and weighed as dry weight.
# 4) The extraction products are analysed by thin-layer chromatography and the quantity of metabolites of ^14C-mevalonate (squalene) is evaluated.
# The squalene on the surface of the skin in culture is extracted, then deposited on HPTLC (high-performance thin layer chromatography) plates and migrated after addition of 10 μg of a squalene standard by deposition in the presence of heptane as migration solvent. The radioactivity of the squalene is visualized in a conventional manner. Each radioactive spot corresponding to squalene is scraped onto the HPTLC plates and the radioactivity is measured using a scintillation counter. Each count was expressed in grams of dry tissue. […]
# [2] = test system: Asian volunteers; assay: Self-evaluation of skin texture (refinement of skin grain); format: in vivo, human; conditions: 2 days after stopping the 28-day treatment, extract at 2%, zinc gluconate positive control
# Method: (§1) The experiment was conducted on Caucasian and Asian volunteers according to the conditions described in Example 3 for 28 days of treatment (last application on D27 in the evening). Assessments carried out on D30 allowed the persistence of the effect of an extract according to the invention on the production of sebum to be evaluated, two days after stopping the treatment.
# Moreover, 2 days after stopping the treatment, 71% of the Asian volunteers who had applied the extract according to Example 1a) at 2% declared that there was refinement of their skin grain (p<0.05). In comparison, only 52% of the volunteers in the group of volunteers who had applied the positive control (zinc gluconate) noticed an improvement in this parameter.
# [3] = test system: Caucasian and Asian volunteers; assay: Determination of squalene in Sebutape patches (HPTLC, densitometry); format: in vivo, human; conditions: after 28 days of treatment; zinc gluconate 1%
# Method: (§2) The principle of this evaluation is based on the clinical and instrumental analysis of samples of secretions of sebum using Sebutape™ patches according to the conventional method.
# (§3) Caucasian and Asian volunteers applied a test product once a day, in blind conditions. Clinical and instrumental assessments, by application of Sebutape™ patches, were carried out on D0, D14 and D28 and the contents of these samples of Sebutape™ patches were analysed quantitatively by image analyser (polarimetric imaging). Determination of the squalene taken in the Sebutape™ patches was carried out as follows:
# The Sebutape™ patches were treated by extraction with 10 ml of ether. The lipid residues were deposited on an HPTLC silica gel nanoplate on an aluminium support, one lane of which was reserved for receiving a deposit of 10 μg of squalene standard.
# The contents of the plates were subjected to migration in heptane.
# The squalene spots were then quantified by densitometry using an instrument of the ChromatoScan CS-93 (Shimadzu) type. Reading was based on absorption at 450 nm and the area of the peaks was expressed in arbitrary units in the table of results given below.
# [4] = test system: Caucasian and Asian volunteers; assay: Clinical assessment of pore size and shiny appearance in volunteers applying the product once a day; format: in vivo, human; conditions: after 28 days of treatment, extract at 2%, zinc gluconate 1%
# Method: as §3, §1
# [5] = test system: Caucasian and Asian volunteers; assay: Number of active sebaceous glands (number of spots on Sebutape patches, image analysis); format: in vivo, human; conditions: extract at 2%, zinc gluconate 1%
# Method: as §2, §3
# At 28 days of treatment, the number of active sebaceous glands had decreased by 7.4% in the subjects who had applied the extract according to Example 1a) at 2% (measurement of the number of spots present on the patches compared against D0).
# as §1
substance,measurement,setting,value
zinc gluconate,"Measurement of squalene synthesis, Mean value",[1],76.6%
same,volunteers declaring refinement of their skin grain (self-evaluation),[2],52%
same,change of content of squalene in the sebum (signed),[3],−14%
same,pore size reduced by (clinical assessment),[4],17.5%
same,"Active sebaceous glands, % Dn/D 0",[5]; 2 days after D 28 (after stopping the treatment),−3.8%
same,"Active sebaceous glands, % Dn/D 0",[5]; D 28,+8.5%
